Laboratory results published in the NIST ThermoML archive (doi:10.1016/j.jct.2018.10.015).
Numbers after ± are expanded uncertainties.

Assay: xn = mol fraction of the nth substance listed
Details: 101.3 kPa, Liquid; for viscosity: Concentric cylinders viscometry; for mass density: Vibrating tube method

CCCCn1cc[n+](C)c1C.O=S(=O)([N-]S(=O)(=O)C(F)(F)F)C(F)(F)F + CCOC(=O)OCC
Details	mass density [kg/m3]	viscosity [mPa·s]
293.15 K, x1 = 0.0996	1078.2 ± 2.4	2.172 ± 0.028
293.15 K, x1 = 0.199	1156.1 ± 2.4	4.104 ± 0.053
293.15 K, x1 = 0.299	1216.4 ± 2.4	7.648 ± 0.096
293.15 K, x1 = 0.3982	1263.9 ± 2.4	13.1 ± 0.16
293.15 K, x1 = 0.4985	1302.6 ± 2.4	21.35 ± 0.27
293.15 K, x1 = 0.5979	1334.6 ± 2.4	33.14 ± 0.42
293.15 K, x1 = 0.698	1361.8 ± 2.5	49.42 ± 0.62
293.15 K, x1 = 0.8	1385.4 ± 2.5	71.45 ± 0.93
293.15 K, x1 = 0.9012	1405.7 ± 2.5	99.34 ± 1.5
293.15 K, x1 = 1	1423.1 ± 2.5	133.6 ± 2.3
298.15 K, x1 = 0.0996	1072.9 ± 2.4	1.989 ± 0.025
298.15 K, x1 = 0.199	1151 ± 2.4	3.665 ± 0.045
298.15 K, x1 = 0.299	1211.4 ± 2.4	6.684 ± 0.081
298.15 K, x1 = 0.3982	1259 ± 3	11.19 ± 0.14
298.15 K, x1 = 0.4985	1297.7 ± 2.4	17.82 ± 0.22
298.15 K, x1 = 0.5979	1329.8 ± 2.4	27.06 ± 0.33
298.15 K, x1 = 0.698	1357.1 ± 2.5	39.58 ± 0.49
298.15 K, x1 = 0.8	1380.8 ± 2.5	56.2 ± 0.69
298.15 K, x1 = 0.9012	1401.1 ± 2.5	76.75 ± 1
298.15 K, x1 = 1	1418.5 ± 2.5	101.82 ± 1.6
303.15 K, x1 = 0.0996	1067.5 ± 2.4	1.829 ± 0.023
303.15 K, x1 = 0.199	1145.8 ± 2.4	3.295 ± 0.04
303.15 K, x1 = 0.299	1206.4 ± 2.4	5.892 ± 0.072
303.15 K, x1 = 0.3982	1254.1 ± 2.4	9.654 ± 0.12
303.15 K, x1 = 0.4985	1292.9 ± 2.4	15.06 ± 0.18
303.15 K, x1 = 0.5979	1325.1 ± 2.4	22.44 ± 0.27
303.15 K, x1 = 0.698	1352.4 ± 2.5	32.24 ± 0.4
303.15 K, x1 = 0.8	1376.1 ± 2.5	44.95 ± 0.56
303.15 K, x1 = 0.9012	1396.5 ± 2.5	60.57 ± 0.75
303.15 K, x1 = 1	1413.9 ± 2.5	79.23 ± 1.1
308.15 K, x1 = 0.0996	1062.1 ± 2.4	1.689 ± 0.021
308.15 K, x1 = 0.199	1140.6 ± 2.4	2.979 ± 0.037
308.15 K, x1 = 0.299	1201.3 ± 2.4	5.234 ± 0.063
308.15 K, x1 = 0.3982	1249.1 ± 2.4	8.41 ± 0.1
308.15 K, x1 = 0.4985	1288.1 ± 2.4	12.88 ± 0.16
308.15 K, x1 = 0.5979	1320.3 ± 2.4	18.86 ± 0.23
308.15 K, x1 = 0.698	1347.6 ± 2.5	26.64 ± 0.33
308.15 K, x1 = 0.8	1371.4 ± 2.5	36.59 ± 0.45
308.15 K, x1 = 0.9012	1391.9 ± 2.5	48.62 ± 0.6
308.15 K, x1 = 1	1409.3 ± 2.5	62.74 ± 0.78
313.15 K, x1 = 0.0996	1056.8 ± 2.4	1.565 ± 0.02
313.15 K, x1 = 0.199	1135.4 ± 2.4	2.708 ± 0.033
313.15 K, x1 = 0.299	1196.3 ± 2.4	4.682 ± 0.057
313.15 K, x1 = 0.3982	1244.2 ± 2.4	7.39 ± 0.089
313.15 K, x1 = 0.4985	1283.2 ± 2.4	11.12 ± 0.13
313.15 K, x1 = 0.5979	1315.5 ± 2.4	16.03 ± 0.19
313.15 K, x1 = 0.698	1342.9 ± 2.5	22.31 ± 0.27
313.15 K, x1 = 0.8	1366.8 ± 2.5	30.21 ± 0.37
313.15 K, x1 = 0.9012	1387.2 ± 2.5	39.65 ± 0.49
313.15 K, x1 = 1	1404.8 ± 2.5	50.56 ± 0.6
318.15 K, x1 = 0.0996	1051.4 ± 2.4	1.456 ± 0.019
318.15 K, x1 = 0.199	1130.3 ± 2.4	2.472 ± 0.03
318.15 K, x1 = 0.299	1191.3 ± 2.4	4.215 ± 0.051
318.15 K, x1 = 0.3982	1239.3 ± 2.4	6.543 ± 0.079
318.15 K, x1 = 0.4985	1278.4 ± 2.4	9.697 ± 0.12
318.15 K, x1 = 0.5979	1310.8 ± 2.4	13.78 ± 0.17
318.15 K, x1 = 0.698	1338.2 ± 2.5	18.9 ± 0.23
318.15 K, x1 = 0.8	1362.1 ± 2.5	25.27 ± 0.31
318.15 K, x1 = 0.9012	1382.6 ± 2.5	32.78 ± 0.4
318.15 K, x1 = 1	1400.2 ± 2.5	41.38 ± 0.5
323.15 K, x1 = 0.0996	1046 ± 2.4	1.359 ± 0.017
323.15 K, x1 = 0.199	1125.1 ± 2.4	2.268 ± 0.028
323.15 K, x1 = 0.299	1186.3 ± 2.4	3.816 ± 0.046
323.15 K, x1 = 0.3982	1234.4 ± 2.4	5.835 ± 0.07
323.15 K, x1 = 0.4985	1273.6 ± 2.4	8.523 ± 0.1
323.15 K, x1 = 0.5979	1306 ± 3	11.95 ± 0.14
323.15 K, x1 = 0.698	1333.6 ± 2.4	16.18 ± 0.19
323.15 K, x1 = 0.8	1357.5 ± 2.5	21.39 ± 0.26
323.15 K, x1 = 0.9012	1378 ± 3	27.46 ± 0.33
323.15 K, x1 = 1	1395.6 ± 2.5	34.32 ± 0.42
328.15 K, x1 = 0.0996	1040.5 ± 2.5	1.271 ± 0.016
328.15 K, x1 = 0.199	1119.8 ± 2.4	2.09 ± 0.026
328.15 K, x1 = 0.299	1181.2 ± 2.4	3.473 ± 0.042
328.15 K, x1 = 0.3982	1229.5 ± 2.4	5.245 ± 0.063
328.15 K, x1 = 0.4985	1268.7 ± 2.4	7.565 ± 0.09
328.15 K, x1 = 0.5979	1301.3 ± 2.4	10.47 ± 0.13
328.15 K, x1 = 0.698	1328.8 ± 2.5	14.02 ± 0.17
328.15 K, x1 = 0.8	1352.8 ± 2.5	18.35 ± 0.22
328.15 K, x1 = 0.9012	1373.4 ± 2.5	23.33 ± 0.28
328.15 K, x1 = 1	1391 ± 2.5	28.91 ± 0.35
